Laboratory results from article PMC7181634, “Enhanced succinic acid production by Mannheimia employing optimal malate dehydrogenase” (Nature Communications, 2020).

Experiments:
MsMDH = biological target: T1, MsMDH ([Mannheimia] succiniciproducens, UniProt Q65T37); experiment: NADH oxidation at […] nm; modified Briggs-Haldane fit; type: biochemical; details: pH 7.0, 0.1 M Tris-HCl, NADH co-substrate, room temperature; uncompetitive substrate inhibition
T1 construct: gene mdh; full length, C-terminal 6xHis (pET30a), expressed in E. coli BL21(DE3), Ni-NTA, ion exchange and size exclusion
T1 sequence (Q65T37 1-312): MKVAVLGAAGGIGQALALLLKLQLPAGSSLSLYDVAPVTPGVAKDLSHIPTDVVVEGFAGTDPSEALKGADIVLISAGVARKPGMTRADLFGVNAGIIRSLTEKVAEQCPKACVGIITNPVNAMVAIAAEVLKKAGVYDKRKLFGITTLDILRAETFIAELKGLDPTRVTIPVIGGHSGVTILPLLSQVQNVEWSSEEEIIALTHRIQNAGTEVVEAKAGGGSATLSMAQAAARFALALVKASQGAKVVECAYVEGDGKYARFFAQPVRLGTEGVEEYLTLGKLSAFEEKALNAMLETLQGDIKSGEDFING

CgMDH = biological target: T2, CgMDH (Corynebacterium glutamicum, UniProt Q8NN33); experiment: as above; type: biochemical; details: pH 7.0, 0.1 M Tris-HCl, NADH co-substrate, room temperature; substrate inhibition
T2 construct: gene mdh; full length, C-terminal 6xHis (pET30a), expressed in E. coli BL21(DE3), Ni-NTA, ion exchange and size exclusion
T2 sequence (Q8NN33 whole entry): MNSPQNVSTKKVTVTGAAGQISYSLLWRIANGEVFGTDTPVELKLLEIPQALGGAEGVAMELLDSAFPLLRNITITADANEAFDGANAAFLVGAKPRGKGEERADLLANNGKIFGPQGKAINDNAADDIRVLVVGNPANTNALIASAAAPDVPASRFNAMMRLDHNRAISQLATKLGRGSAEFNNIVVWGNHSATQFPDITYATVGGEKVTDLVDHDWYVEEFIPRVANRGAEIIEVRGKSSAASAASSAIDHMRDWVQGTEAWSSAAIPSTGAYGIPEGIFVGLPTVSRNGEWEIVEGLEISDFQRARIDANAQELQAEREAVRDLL

## O=C(O)CC(=O)C(=O)O [oxaloacetate]
MsMDH
  MsMDH / ki: 47.3 ± 22.1 µM
CgMDH
  CgMDH / ki: 500.0 ± 114.1 µM
